# Data published in patent US6558686B1, “Method of coating medical devices with a combination of antiseptics and antiseptic coating therefor” (Baylor College of Medicine, priority 1995, dated 2003).
# Assays:
# [1] = test system: Pseud. aeruginosa; assay: Zones of inhibition, coated stainless steel cylinders on agar (Example 1); format: cell-based, Pseudomonas aeruginosa; conditions: coated stainless steel cylinder, 18-24 hours at 37° C.
# Description: (§1) Antiseptic coatings were applied to each of four stainless steel cylinders (0.5″ diameter×2″ length), using each of the above four antiseptic solutions, by dipping each cylinder for 1 minute at 50° C. in the respective solution.
# [2] = test system: S. epidermidis; assay: Zones of inhibition, single-layer coated stainless steel cylinders (Example 4); conditions: single-layer coated stainless steel cylinder, 18-24 hours at 37° C.
# Description: (§3) Stainless steel cylinders (0.5×2″) were dipped in one of the three antiseptic coating solutions for 1 minute at 50° C. Devices were allowed to dry for at least 4 hours, then placed into agar plates that had been freshly overlaid with one of the microorganisms shown below in Table 4. After 18-24 hours of incubation at 37° C., the following measurements of zones of inhibition were recorded.
# [3] = test system: Candida albicans; assay: as above; format: cell-based; conditions: single-layer coated stainless steel cylinder, 18-24 hours at 37° C.
# Description: as §3
# [4] = cited from earlier work
# [5] = test system: Staph. epidermidis; assay: Zones of inhibition, coated stainless steel cylinders on agar (Example 1); format: cell-based, Staphylococcus epidermidis; conditions: coated stainless steel cylinder, 18-24 hours at 37° C.
# Description: as §1
# [6] = test system: P. aerug; assay: Zones of inhibition, single-layer coated stainless steel cylinders (Example 4); format: cell-based; conditions: single-layer coated stainless steel cylinder, 18-24 hours at 37° C.
# Description: as §3
# [7] = test system: Candida albicans; assay: Zones of inhibition, coated stainless steel cylinders on agar (Example 1); format: cell-based; conditions: coated stainless steel cylinder, 18-24 hours at 37° C.
# Description: as §1
# [8] = test system: Pseudomonas; assay: Antimicrobial activity of coated silicone urinary catheters, initial and after 1 week in urine (Example 5); format: cell-based, Pseudomonas aeruginosa; conditions: for Pseudomonas 1 week (antimicrobial activity of coated catheter): catheter segments incubated in urine for 1 week at 37° C.; for Pseudomonas Initial (antimicrobial activity of coated catheter): silicone urinary catheter
# Description: (§2) A first antiseptic solution was formed by dissolving chloroxylenol (200 mg/ml) in an 85:15 solution of butyl acetate: methanol that has NaOH (5 mg/ml of methanol). A second antiseptic solution was formed by dissolving thymol (150 mg/ml) in an 85:15 solution of butyl acetate: methanol that has NaOH (5 mg/ml of methanol). A third antiseptic solution was formed by dissolving chloroxylenol (200 mg/ml) and thymol (150 mg/ml) in an 85:15 solution of butyl acetate: methanol that has NaOH (5 mg/ml of methanol). Eighteen-french silicone urinary catheters were dipped in one of the above coating solutions for 1 hour at 45° C. The catheters were allowed to dry overnight then rinsed.
# [9] = test system: E. coli; assay: as above; format: cell-based; conditions: for E. coli 1 week (antimicrobial activity of coated catheter): catheter segments incubated in urine for 1 week at 37° C.; for E. coli Initial (antimicrobial activity of coated catheter): silicone urinary catheter
# Description: as §2
# [10] = test system: Candida albicans; assay: as above; format: cell-based; conditions: for Candida albicans 1 week (antimicrobial activity of coated catheter): catheter segments incubated in urine for 1 week at 37° C.; for Candida albicans Initial (antimicrobial activity of coated catheter): silicone urinary catheter
# Description: as §2
# [11] = test system: Enterococcus; assay: as above; format: cell-based; conditions: for Enterococcus 1 week (antimicrobial activity of coated catheter): catheter segments incubated in urine for 1 week at 37° C.; for Enterococcus Initial (antimicrobial activity of coated catheter): silicone urinary catheter
# Description: as §2
# [12] = test system: S. epidermidis; assay: as above; format: cell-based; conditions: for S. epidermidis 1 week (antimicrobial activity of coated catheter): catheter segments incubated in urine for 1 week at 37° C.; for S. epidermidis Initial (antimicrobial activity of coated catheter): silicone urinary catheter
# Description: as §2
SMILES,Zones of inhibition Pseud. aeruginosa [1],Zones of inhibition S. epidermidis [2],Zones of inhibition Candida albicans [3],Solubility in acetic acid ([4]; acetic acid),Solubility in formic acid ([4]; formic acid),Solubility in organic solvents ([4]; organic solvents),Zones of inhibition Staph. epidermidis [5],Zones of inhibition P. aerug [6],Zones of inhibition Candida albicans [7],Pseudomonas 1 week (antimicrobial activity of coated catheter) [8],Pseudomonas Initial (antimicrobial activity of coated catheter) [8],E. coli 1 week (antimicrobial activity of coated catheter) [9],E. coli Initial (antimicrobial activity of coated catheter) [9],Candida albicans 1 week (antimicrobial activity of coated catheter) [10],Candida albicans Initial (antimicrobial activity of coated catheter) [10],Enterococcus 1 week (antimicrobial activity of coated catheter) [11],Enterococcus Initial (antimicrobial activity of coated catheter) [11],S. epidermidis 1 week (antimicrobial activity of coated catheter) [12],S. epidermidis Initial (antimicrobial activity of coated catheter) [12]
[H]/N=C(\N/C(=N/[H])NCCCCCCNC(=N)NC(=N)Nc1ccc(Cl)cc1)Nc1ccc(Cl)cc1 [Chlorhexidine],28 m.m.,30 m.m.,28 m.m.,soluble,soluble,generally not soluble,31 m.m.,25 m.m.,26 m.m.,–,–,–,–,–,–,–,–,–,–
"Cc1cc(O)cc(C)c1Cl [Chloroxylenol, 4-chloro, 3,5-dimethyl phenol]",–,–,–,–,–,–,–,–,–,0,10,11,15,26,30,10,13,20,25
"Cc1ccc(C(C)C)c(O)c1 [Thymol, 5-methyl-2 isopropyl phenol]",18 m.m.,–,–,–,–,–,23 m.m.,–,14 m.m.,0,11,28,35,38,60,17,28,30,38
